Laboratory results from the NIST ThermoML archive (doi:10.1016/j.tca.2016.05.007).

Experiment: molar heat capacity at constant pressure
Settings: 101.33 kPa, Small (less than 1 g) adiabatic calorimetry

COc1ccc(C2(c3ccc(OC)c(C)c3)OC(=O)c3ccccc32)cc1C [3,3-bis(4-methoxy-3-methylphenyl)-1(3H)-isobenzofuranone]
Settings	molar heat capacity at constant pressure [J/K/mol]
230.46 K, Glass	366.31
230.47 K, Crystal	359.41
232.95 K, Glass	369.75
233.14 K, Crystal	362.97
235.43 K, Glass	373.33
235.82 K, Crystal	366.8
237.94 K, Glass	377.18
238.52 K, Crystal	370.5
240.46 K, Glass	380.87
241.23 K, Crystal	373.97
243.01 K, Glass	384.18
243.95 K, Crystal	377.59
245.58 K, Glass	387.76
246.68 K, Crystal	381.22
248.17 K, Glass	391.43
249.42 K, Crystal	384.68
250.78 K, Glass	395.34
252.17 K, Crystal	388.51
253.42 K, Glass	399.08
254.94 K, Crystal	392.35
256.07 K, Glass	402.8
257.72 K, Crystal	395.86
258.74 K, Glass	406.86
260.51 K, Crystal	399.92
261.44 K, Glass	410.9
263.31 K, Crystal	403.6
264.16 K, Glass	414.85
266.12 K, Crystal	407.84
266.89 K, Glass	419.34
268.94 K, Crystal	412.03
269.65 K, Glass	423.9
271.78 K, Crystal	417
272.43 K, Glass	428.57
274.62 K, Crystal	419.54
275.22 K, Glass	431.8
277.48 K, Crystal	423.7
278.04 K, Glass	436.42
280.36 K, Crystal	427.79
280.88 K, Glass	440.97
282.95 K, Crystal	430.44
283.74 K, Glass	445.62
285.84 K, Crystal	434.94
286.62 K, Glass	450.63
288.75 K, Crystal	438.86
289.52 K, Glass	455.31
291.64 K, Crystal	442.83
292.44 K, Glass	460.3
294.51 K, Crystal	446.52
295.38 K, Glass	465.32
297.4 K, Crystal	449.56
298.34 K, Glass	470.91
301.33 K, Glass	473.58
303.26 K, Crystal	457.78
304.32 K, Glass	491.69
306.21 K, Crystal	461.74
307.3 K, Glass	525.07
309.18 K, Crystal	465.91
310.26 K, Glass	604.32
312.18 K, Crystal	470.02
313.23 K, Glass	614.14
315.19 K, Crystal	474.07
316.23 K, Metastable liquid	622.32
318.23 K, Crystal	478.43
319.25 K, Metastable liquid	625.96
321.28 K, Crystal	482.81
322.29 K, Metastable liquid	629.84
324.35 K, Crystal	487.1
325.35 K, Metastable liquid	633.32
327.44 K, Crystal	491.54
328.43 K, Metastable liquid	636.56
330.55 K, Crystal	495.88
331.52 K, Metastable liquid	639.81
333.68 K, Crystal	500.17
334.64 K, Metastable liquid	642.98
336.81 K, Crystal	504.57
337.78 K, Metastable liquid	646.52
339.94 K, Crystal	508.36
340.93 K, Metastable liquid	649.55
343.08 K, Crystal	512.55
344.11 K, Metastable liquid	652.75
346.25 K, Crystal	517.45
347.3 K, Metastable liquid	656.04
349.43 K, Crystal	521.7
350.51 K, Metastable liquid	659.31
352.63 K, Crystal	525.97
353.74 K, Metastable liquid	662.1
355.85 K, Crystal	530.55
356.97 K, Metastable liquid	665.61
359.09 K, Crystal	535.23
360.22 K, Metastable liquid	669.03
362.34 K, Crystal	540.42
363.49 K, Metastable liquid	672.55
365.61 K, Crystal	545.96
366.77 K, Metastable liquid	676.27
368.9 K, Crystal	551.67
370.07 K, Metastable liquid	680.12
372.2 K, Crystal	556.9
